Data: patent US20240209401A1, “CULTURE MEDIUM COMPOSITION FOR INCREASING GROWTH AND METABOLIC RATE OF ACETOGENIC STRAIN AND METHOD FOR CULTURING ACETOGENIC STRAIN USING THE SAME” (GWANGJU INSTITUTE OF SCIENCE AND TECHNOLOGY, priority 2022, published 2024)

Columns and labels:
acetogen strain [1] = assay: Steady-state culture (dilution rate of 0.018/h) with CO and CO2 gas substrates; format: cell-based; details: methanol added
Excerpt: The method for culturing an acetogen strain may include a medium injection step of injecting the acetogen strain culture medium composition containing the C1 compound into a bioreactor; a strain inoculation step of inoculating the acetogenic strain into the culture medium composition; and a bioreactor driving step of culturing the acetogenic strain by driving the bioreactor. […]

acetogen strain [2] = assay: Growth inhibition by high methanol concentration in the medium; format: cell-based; details: with respect to the total medium composition
Excerpt: In this case, the methanol may be contained in a concentration of more than 0 M and 1.5 M or less with respect to the total medium composition.
If the concentration of methanol exceeds 1.5 M, it is not preferable because growth inhibition occurs due to the addition of a high concentration of organic solvent.

Compound: CO [methanol]
- cell concentration in the steady state (acetogen strain [1]): 17.4 g/L
- cell conversion yield (acetogen strain [1]): 0.008 g DCW/mmol MeOH
- concentration of methanol at which growth inhibition occurs (acetogen strain [2]): exceeds 1.5 M
